# Experimental data reported in paper PMC10465233, “Lys-urea-Aad, Lys-urea-Cmc and Lys-urea-Cms as potential pharmacophores for the design of PSMA-targeted radioligands to reduce off-target uptake in kidneys and salivary glands” (Theranostics, 2023).
# What was measured:
# [1] = Radiation dosimetry for major organs of 25-g mice (OLINDA, MOBY phantom); format: in vivo, mouse
# Description: Internal dosimetry estimates were calculated using the organ level internal dose assessment (OLINDA) software v.2.2 following our previously published procedures. These estimates were performed for the mouse using the 25g MOBY phantom, and for the tumors using the previously reported unit density sphere model. Both the phantom and the sphere model are available in OLINDA and require the input of the total number of decays normalized by injected activity in units of MBq×h/MBq for each of the source organ/tumor.
# The biodistribution data (available in Table S5-S7) were used to determine the kinetics input values required by OLINDA. First, each of the values was decayed to its corresponding time point (the values on the table are shown at injection time). Then the different time-points of the uptake data (%ID/g) for each organ were fitted to both mono-exponential (%ID/g = ae^⎯bt) and bi-exponential (%ID/g = ae^⎯bt + ce^⎯dt) functions using in-house software developed in Python. The best fit was selected based on maximizing the coefficient of determination (R^2) of the fit and minimizing the residuals. The areas under the curves were analytically calculated based on the parameters obtained from the best fit of each organ and this provided the kinetic input values required by OLINDA.
# In the mouse case, the adrenals, blood, fat, and muscle are not modeled in the phantom. These organs were grouped together and included in what OLINDA calls the remainder of the body. Lastly, the numbers of decays in the tumors were also calculated based on the biodistribution data of the mice and the values were inputted into the sphere model available in OLINDA.
# LNCaP tumor-bearing mice = experiment: Ex vivo biodistribution in LNCaP tumor-bearing mice; design: species or system mouse
# Description: Imaging, biodistribution and radioligand therapy experiments were performed following previously published procedures using male NOD-scid IL2Rg^null (NSG) or NOD.Cg-Rag1^tm1MomIl2rg^tm1Wjl/SzJ (NRG) mice [10]-[12],[14]-[15]. The experiments were conducted according to the guidelines established by the Canadian Council on Animal Care and approved by Animal Ethics Committee of the University of British Columbia. The mice were briefly sedated by inhalation of 2% isoflurane in oxygen, and implanted subcutaneously with 1×10^7 LNCaP cells behind the left shoulder. The mice were imaged or used in biodistribution studies when the tumor grew to 5-8 mm in diameter over a period of 4-5 weeks.
# For biodistribution studies, the mice were injected with the radioligand (2-4 MBq) as described above. For blocking, the mice were co-injected with nonradioactive DCFPyL (0.5 mg). At predetermined time points, the mice were sedated by isoflurane inhalation and euthanized by CO2 inhalation. Blood was withdrawn by cardiac puncture, and organs/tissues of interest were collected, weighed and counted using an automatic gamma counter (Tables S4-S7).
structure (smiles),measurement,setting,value
COc1ccc(CCCC(=O)NCC(=O)N[C@@H](CCCCNC(=O)CN2CCN(CC(=O)[O-])CCN(CC(=O)[O-])CCN(CC(=O)[O-])CC2)C(=O)NC[C@H]2CC[C@H](C(=O)N[C@@H](Cc3c4ccccc4cc4ccccc34)C(=O)NCCCC[C@H](NC(=O)N[C@@H](CCCC(=O)O)C(=O)O)C(=O)O)CC2)cc1.[177Lu+3] [[^177Lu]Lu-HTK03170],Kinetics value,[1]; source organ Brain,2.55E-02 MBq-h/MBq
same,Kinetics value,[1]; source organ Cortical bone,1.91E-01 MBq-h/MBq
same,Kinetics value,[1]; source organ Heart,7.94E-02 MBq-h/MBq
same,Kinetics value,[1]; source organ Kidneys,1.33E+00 MBq-h/MBq
same,Kinetics value,[1]; source organ Large intestine contents,1.12E-01 MBq-h/MBq
same,Kinetics value,[1]; source organ Liver,1.24E+00 MBq-h/MBq
same,Kinetics value,[1]; source organ Lungs,6.60E-02 MBq-h/MBq
same,Kinetics value,[1]; source organ Pancreas,4.12E-02 MBq-h/MBq
same,Kinetics value,[1]; source organ Remainder of the body,4.23E+00 MBq-h/MBq
same,Kinetics value,[1]; source organ Small intestine,3.35E-01 MBq-h/MBq
same,Kinetics value,[1]; source organ Spleen,1.04E-01 MBq-h/MBq
same,Kinetics value,[1]; source organ Stomach,1.32E-02 MBq-h/MBq
same,Kinetics value,[1]; source organ Testes,9.21E-02 MBq-h/MBq
same,Kinetics value,[1]; source organ Thyroid,5.15E-03 MBq-h/MBq
same,Kinetics value,[1]; source organ Urinary bladder,1.11E+00 MBq-h/MBq
same,Adrenal glands uptake,LNCaP tumor-bearing mice; 1 h post-injection,3.34 ± 0.45 %ID/g
same,Blood uptake,LNCaP tumor-bearing mice; 1 h post-injection,16.9 ± 1.97 %ID/g
same,Blood:Salivary gland uptake ratio,LNCaP tumor-bearing mice; 1 h post-injection,7.04 ± 0.86
same,Bone uptake,LNCaP tumor-bearing mice; 1 h post-injection,0.89 ± 0.27 %ID/g
same,Brain uptake,LNCaP tumor-bearing mice; 1 h post-injection,0.23 ± 0.04 %ID/g
same,Fat uptake,LNCaP tumor-bearing mice; 1 h post-injection,1.38 ± 0.45 %ID/g
same,Heart uptake,LNCaP tumor-bearing mice; 1 h post-injection,3.60 ± 0.52 %ID/g
same,Intestines uptake,LNCaP tumor-bearing mice; 1 h post-injection,1.19 ± 0.25 %ID/g
same,Kidneys uptake,LNCaP tumor-bearing mice; 1 h post-injection,13.2 ± 1.87 %ID/g
same,Lacrimal glands uptake,LNCaP tumor-bearing mice; 1 h post-injection,0.27 ± 0.08 %ID/g
same,Liver uptake,LNCaP tumor-bearing mice; 1 h post-injection,2.67 ± 0.37 %ID/g
same,Lungs uptake,LNCaP tumor-bearing mice; 1 h post-injection,8.06 ± 1.48 %ID/g
same,Muscle uptake,LNCaP tumor-bearing mice; 1 h post-injection,1.15 ± 0.19 %ID/g
same,Pancreas uptake,LNCaP tumor-bearing mice; 1 h post-injection,1.41 ± 0.31 %ID/g
same,Salivary glands uptake,LNCaP tumor-bearing mice; 1 h post-injection,2.43 ± 0.33 %ID/g
same,Spleen uptake,LNCaP tumor-bearing mice; 1 h post-injection,1.64 ± 0.83 %ID/g
same,Stomach uptake,LNCaP tumor-bearing mice; 1 h post-injection,0.59 ± 0.12 %ID/g
same,Testes uptake,LNCaP tumor-bearing mice; 1 h post-injection,2.17 ± 0.32 %ID/g
same,Thyroid uptake,LNCaP tumor-bearing mice; 1 h post-injection,2.90 ± 0.41 %ID/g
same,Tumor uptake,LNCaP tumor-bearing mice; 1 h post-injection,27.2 ± 7.55 %ID/g
same,Tumor:Blood uptake ratio,LNCaP tumor-bearing mice; 1 h post-injection,1.58 ± 0.26
same,Tumor:Kidney uptake ratio,LNCaP tumor-bearing mice; 1 h post-injection,2.07 ± 0.55
same,Tumor:Muscle uptake ratio,LNCaP tumor-bearing mice; 1 h post-injection,23.5 ± 4.66
same,Tumor:Salivary gland uptake ratio,LNCaP tumor-bearing mice; 1 h post-injection,11.3 ± 2.76
same,Adrenal glands uptake,LNCaP tumor-bearing mice; 4 h post-injection,1.78 ± 0.45 %ID/g
same,Blood uptake,LNCaP tumor-bearing mice; 4 h post-injection,8.34 ± 1.67 %ID/g
same,Blood:Salivary gland uptake ratio,LNCaP tumor-bearing mice; 4 h post-injection,6.48 ± 1.02
same,Bone uptake,LNCaP tumor-bearing mice; 4 h post-injection,0.45 ± 0.13 %ID/g
same,Brain uptake,LNCaP tumor-bearing mice; 4 h post-injection,0.13 ± 0.03 %ID/g
same,Fat uptake,LNCaP tumor-bearing mice; 4 h post-injection,0.60 ± 0.13 %ID/g
same,Heart uptake,LNCaP tumor-bearing mice; 4 h post-injection,1.91 ± 0.40 %ID/g
same,Intestines uptake,LNCaP tumor-bearing mice; 4 h post-injection,0.61 ± 0.17 %ID/g
same,Kidneys uptake,LNCaP tumor-bearing mice; 4 h post-injection,9.23 ± 2.18 %ID/g
same,Lacrimal glands uptake,LNCaP tumor-bearing mice; 4 h post-injection,0.15 ± 0.07 %ID/g
same,Liver uptake,LNCaP tumor-bearing mice; 4 h post-injection,1.89 ± 0.69 %ID/g
same,Lungs uptake,LNCaP tumor-bearing mice; 4 h post-injection,4.35 ± 0.82 %ID/g
same,Muscle uptake,LNCaP tumor-bearing mice; 4 h post-injection,0.58 ± 0.13 %ID/g
same,Pancreas uptake,LNCaP tumor-bearing mice; 4 h post-injection,0.74 ± 0.18 %ID/g
same,Salivary glands uptake,LNCaP tumor-bearing mice; 4 h post-injection,1.31 ± 0.30 %ID/g
same,Spleen uptake,LNCaP tumor-bearing mice; 4 h post-injection,0.96 ± 0.29 %ID/g
same,Stomach uptake,LNCaP tumor-bearing mice; 4 h post-injection,0.42 ± 0.15 %ID/g
same,Testes uptake,LNCaP tumor-bearing mice; 4 h post-injection,1.83 ± 0.58 %ID/g
same,Thyroid uptake,LNCaP tumor-bearing mice; 4 h post-injection,1.62 ± 0.42 %ID/g
same,Tumor uptake,LNCaP tumor-bearing mice; 4 h post-injection,47.6 ± 13.5 %ID/g
same,Tumor:Blood uptake ratio,LNCaP tumor-bearing mice; 4 h post-injection,5.81 ± 1.58
same,Tumor:Kidney uptake ratio,LNCaP tumor-bearing mice; 4 h post-injection,5.38 ± 1.91
same,Tumor:Muscle uptake ratio,LNCaP tumor-bearing mice; 4 h post-injection,83.1 ± 17.0
same,Tumor:Salivary gland uptake ratio,LNCaP tumor-bearing mice; 4 h post-injection,36.4 ± 5.35
same,Adrenal glands uptake,LNCaP tumor-bearing mice; 24 h post-injection,0.50 ± 0.16 %ID/g
same,Blood uptake,LNCaP tumor-bearing mice; 24 h post-injection,0.59 ± 0.13 %ID/g
same,Blood:Salivary gland uptake ratio,LNCaP tumor-bearing mice; 24 h post-injection,2.11 ± 0.47
same,Bone uptake,LNCaP tumor-bearing mice; 24 h post-injection,0.06 ± 0.04 %ID/g
same,Brain uptake,LNCaP tumor-bearing mice; 24 h post-injection,0.02 ± 0.01 %ID/g
same,Fat uptake,LNCaP tumor-bearing mice; 24 h post-injection,0.12 ± 0.04 %ID/g
same,Heart uptake,LNCaP tumor-bearing mice; 24 h post-injection,0.26 ± 0.04 %ID/g
